In general, solubility refers to how much of the substance goes into solution per volume.

A short description of data set [1]: Thermal decomposition (TGA / DSC). It counts as physicochemical. An excerpt:
The optical and thermal properties of the thiazolyl-pyridinium based dye compounds were studied. The dyes show high absorption at the desired wavelengths. In addition, the shape of the absorption spectra, that still remains critical to the disc reflectivity and formation of clean mark edges, are composed of one major band, comprised in a range of from 350 to 500 nm, preferably of from 350 to 400 nm.
Sharp threshold of thermal decomposition within the required temperature range characterizes the new thiazolylpyridinium based dyes which are assumed to be desirable for the application in optical layers for optical data recording.

Data set [2] is described as follows: Solubility in 2,2,3,3-tetrafluoropropanol. The note with it: 20 °C, organic solvent or mixture.

`C[n+]1ccc(-c2nc3ccc(Cl)cc3s2)cc1.[I-]` [Example 12, 1-methyl-4-(6-chlor-benzothiazol-2-yl)pyridinium iodide]: in data set [1], the “TGA (decomp.)” value worked out at 244 °C. Moreover, in data set [2], the solubility was over 50 mg/mL.

Turning to `COc1ccc(-c2csc(-c3cc[n+](C)cc3)n2)cc1.[I-]` [Example 10, 4-[4-(4-methoxy-phenyl)-thiazol-2-yl]-1-methyl-pyridinium iodide], the “TGA (decomp.)” value in data set [1] stood at 250 °C. Moreover, the solubility in data set [2] is over 50 mg/mL.

In the case of `C[n+]1ccc(-c2nc(-c3ccccc3)cs2)cc1.[I-]` [Example 9, 1-methyl-4-[4-phenyl-thiazolyl-(2)]-pyridinium iodide], in data set [1], the “TGA (decomp.)” value came to 260 °C. Besides, in data set [2], the solubility was over 30 mg/mL. For `C[n+]1ccc(-c2nc(C(C)(C)C)cs2)cc1.[I-]` [Example 8, 1-methyl-4-[4-tert-butyl-thiazolyl-(2)]-pyridiniumiodide], in data set [2], the solubility is over 5e-05 mg/mL.

`CC(C)[n+]1ccc(-c2nc(-c3ccccc3)cs2)cc1.[I-]` [Example 7, 1-isopropyl-4-[4-phenyl-thiazolyl-(2)]-pyridiniumiodide]: the “TGA (decomp.)” value in data set [1] turned out to be 270 °C. Further, in data set [2], the solubility was over 50 mg/mL. Turning to `COc1ccc(-c2csc(-c3cc[n+](C(C)C)cc3)n2)cc1` [Example 11], the “TGA (decomp.)” value in data set [1] amounted to 240 °C. In addition, the solubility in data set [2] was over 50 mg/mL.

For the origin of these results see US7655767B2, “Use of thiazolyl-pyridinium based dyes in optical layers for optical data recording” (priority 2004, dated 2010).
